Reference: patent US20250064846A1, “TREATMENT AND PREVENTION OF TRIGEMINAL NEURALGIA” (THE JOHNS HOPKINS UNIVERSITY, priority 2022, published 2025)

Tests used:
[1] = system: NRF2; assay: NRF2/ARE Luciferase Reporter Assay (HEK293 stable cell line); type: cell-based, human; settings: NRF2-dependent luciferase activity, cells treated for 6 hours; read-out: EC50 for stimulating NRF2
Protocol: NRF2/ARE Luciferase Reporter Assay NRF2 activity was monitored with a reporter cell line in which changes in NRF2 activity are coupled to the expression of firefly luciferase (NRF2/ARE Luciferase Reporter HEK293 Stable Cell Line). Luciferase activity was quantified with the Luciferase Assay System as per the manufacturer's instructions. Briefly, cells were plated at 125,000 cells/well in a 24-well plate. The following day, cells were treated with either vehicle or varying doses of sulforaphane, exemestane, or JQ-1 for 6 hours. Cells were then lysed in passive lysis buffer (Promega E1941) supplemented with protease inhibitors (Sigma). Lysates were then cleared at 16,000 g for 15 minutes at 4° C. 15 μL of each lysate was mixed with 5 μL of luciferase assay substrate (Promega). Total light was measured using a luminometer with a 10 second integration time with a delay of 2 seconds. Luciferase measurements were normalized to total protein and reported as normalized to the vehicle condition.

[2] = system: mutant TRPA1 (Cys621, Cys641, Cys665, Lys721); assay: Calcium imaging of HEK293 cells transiently expressing mutant TRPA1; type: cell-based; settings: 100 μM 4-HNE
Protocol: (§1) Calcium Imaging and Analysis Calcium imaging and analysis was performed as previously described (See Meixiong, J. et al. Elife 8, (2019)). Briefly, cells were imaged in calcium imaging buffer (CIB; 10 mM HEPES, 1.2 mM NaHCO3, 130 mM NaCl, 3 mM KCl, 2.5 mM CaCl2, 0.6 mM MgCl2, 20 mM glucose, and 20 mM sucrose at pH 7.4 and 290-300 mOsm). To monitor changes in intracellular [Ca^2+]([Ca^2+]i), cells were loaded with either 1 μM Fura 2-AM (HEK293 cells) or 1 μM Fluo 4-AM (trigeminal neurons) for 30 min in the dark at 37° C. in CIB just prior to imaging. With Fura 2-AM, emission at 510 nm was monitored following excitation at both 340 nm and 380 nm. With Fluo 4-AM, emission at 520 nm was monitored following excitation at 488 nm. Cells were identified as positively responding if [Ca^2+]i rose by 15% compared to baseline. Damaged, detached, high-baseline, and motion-activated cells were excluded from analysis.
(§2) HEK293 cells were plated on poly-D-lysine-coated coverslips and transiently transfected with the vector backbone or constructs encoding WT or mutant TRPA1. Unless otherwise noted, cells were imaged for 30 s to establish a baseline before compounds were added. Vehicle was first applied for 30 s, after which 100 μM iodoacetamide, 1 mM H2O2, or 100 μM 4-HNE was applied. CSF from cases and controls was diluted into calcium imaging buffer 1:50 prior to each trial. 50 μM of the non-selective TRP channel inhibitor ruthenium red was applied at the end of every imaging trial.
(§3) ROS directly activated TRPA1 by covalently bonding or modifying a network of cysteine and lysine residues within the channel. Extensive work by several groups has pinpointed a collection of key residues in TRPA1, including Cys421, Cys621, Cys641, Cys665, and Lys721. To test which residues among these sense H2O2 and 4-HNE, each was mutated individually and in various combinations (FIGS. 7A and 7B). Triply mutating cysteines Cys621, Cys641, Cys665 to serine rendered TRPA1 insensitive to both iodoacetamide and H2O2 (FIGS. 2D-2E). […] These four residues position TRPA1 as both a key sensor and transducer of oxidative stress.

[3] = biological target: T1, mutant TRPA1 (Cys621, Cys641, Cys665, Lys721) (Homo sapiens, UniProt O75762, C621S/C641S/C665S); assay: as above; type: cell-based; settings: 100 μM iodoacetamide, 1 mM H2O2 or 100 μM 4-HNE
T1 construct: expressed in transfected cells; host or cells: HEK293
Protocol: as §1, §2, §3

[4] = biological target: T2, TRPA1 (Homo sapiens, UniProt O75762); assay: Calcium imaging of HEK293 cells transiently expressing WT TRPA1; type: cell-based; settings: for calcium response of cells transfected with the vector backbone alone: 100 μM iodoacetamide, control vector; for calcium response of cells transfected with the vector backbone alone / calcium response of cells expressing WT TRPA1: 1 mM H2O2 or 100 μM 4-HNE; for EC50: concentration-Ca2+ response, HEK-293 cells transfected with WT TRPA1
T2 construct: expressed in transfected cells; host or cells: HEK293
Protocol: as §1, §2

[5] = system: constrictive mouse model of trigeminal neuralgia; assay: Mechanical allodynia (Von Frey filament) after constriction of the maxillary nerve; type: in vivo; settings: WT mice, vs vehicle
Protocol: (§4) Constriction of the Maxillary Nerve Constriction of the maxillary division of trigeminal nerve was performed as previously described (See Benedetti, A., et al., Biochimica Et Biophysica Acta Bba—Lipids Lipid Metabolism 620, 281-296 (1980) and Vos, B., et al J Neurosci 14, 2708-2723 (1994)). The procedure was performed under direct visualization and control with a surgical microscope. Mice were first anesthetized with ketamine (100 mg/kg, i.p.) and xylazine (12.5 mg/kg, i.p.) and monitored by pinching the skin between the toes with forceps and monitoring for withdrawal. Mice were restrained with adhesive tape to a sterilized polystyrene board. Upon sufficient anesthesia, the scalp was shaved and an anterior to posterior skin incision was made at the midline to expose the nasal and maxillary bones. The maxillary nerve was exposed and carefully dissected free from the surrounding connective tissue. The distal end of the maxillary nerve was then loosely constricted using 8-0 silk sutures as a ligature. The sutures were tied using a slip knot followed by a normal knot, after which any remaining suture was cut free. The incision was then closed with a 4-0 silk suture. In the sham procedure, the left maxillary nerve was exposed but not constricted. Mice were monitored and rehydrated until fully recovered from anesthesia.
(§5) Pharmacologic Treatments Mice were dosed with either sulforaphane (10 mg/kg, i.p.), exemestane (10 mg/kg, i.p.), letrozole (10 mg/kg, i.p.), (+)-JQ-1 (40 mg/kg, i.p.), (−)-JQ-1 (40 mg/kg, i.p.), or ascorbate (100 mg/kg, i.p.) as indicated below. Mice were first dosed daily for two days before surgery and again daily just after behavior testing. For local exemestane treatment, exemestane (5 μL, 25 μg total) was applied directly to the maxillary nerve. Mice received a single dose during surgery. Mice were dosed with AM-0902 (30 mg/kg, p.o.). Mice were treated with AM-0902 were dosed 30 min prior to behavior testing. Mice were dosed with tamoxifen (75 mg/kg, i.p.). Mice were dosed once every 24 hrs over 5 consecutive days. Behavioral and molecular tests were only performed 7 or more days after the final tamoxifen injection.
Mechanical Allodynia Mechanical allodynia was assessed in C57BL/6J, TRPA1^+/+, TRPA1^−/−, Keap1(f/f), and Keap1(f/f/CMV-CreER mice using a Von Frey filament as previously outlined (See Benedetti, A., et al., Biochimica Et Biophysica Acta Bba—Lipids Lipid Metabolism 620, 281-296 (1980) and Vos, B., et al J Neurosci 14, 2708-2723 (1994)). Animals were placed individually in transparent plastic boxes and allowed to acclimate to the environment for at least 30 min before testing. After habituation, a 0.04 g force Von Frey filament was used to stimulate the territory innervated by the maxillary nerve, including the vibrissal skin pad. Each mouse's response to the filament was scored from 0-4 on the scale below. Each mouse was scored ten times per day. Changes in mechanical allodynia were considered relative to sham- or vehicle-treated animal controls. Behavior was assessed concomitantly or in a blocked manner with consideration for both genotype and treatment. • 0—no response • 1—non-defensive response to the stimulus (e.g., mouse non-defensively explores filament) • 2—withdrawal response (e.g., mouse turns head away from filament) • 3—escape/attack response (e.g., mouse moves body away from filament and assumes crouching position against the box wall; actively attacks filament by biting and/or grabbing) • 4—asymmetric face grooming (e.g., mouse wipes stimulated facial area in uninterrupted series of at least three face-wash strokes)

[6] = system: constrictive mouse model of trigeminal neuralgia; assay: Cold allodynia (ice-cold acetone) after constriction of the maxillary nerve; type: in vivo; settings: NRF2−/− mice; AM-0902 30 mg/kg, p.o., 30 min prior to behavior testing
[7] = system: constrictive mouse model of trigeminal neuralgia; assay: Mechanical allodynia (Von Frey filament) after constriction of the maxillary nerve; type: in vivo; settings: NRF2−/− mice; AM-0902 30 mg/kg, p.o., 30 min prior to behavior testing
[8] = system: constrictive mouse model of trigeminal neuralgia; assay: Cold allodynia (ice-cold acetone) after constriction of the maxillary nerve; type: in vivo; settings: WT mice, vs vehicle
Protocol: as §4, §5
Cold Allodynia Cold allodynia was assessed in C57BL/6J, TRPA1^+/+, TRPA1^−/−, Keap1(f/f), and Keap1(f/f)/CMV-CreER mice using ice-cold acetone as previously outlined (See Yoon, C., et al., Pain 59, 369-376 (1994)). Animals were placed individually in transparent plastic boxes and allowed to acclimatize to the environment for at least 30 min before testing. After habituation, 20 μl of cold acetone was applied to the ligated vibrissal pad skin surface. Cold allodynia was measured as the average time spent wiping the region in a 60 s period, with a maximum of 5 seconds between bouts of wiping. Allodynia was measured three times with 10 min between intervals. Changes in cold allodynia were considered relative to sham- or vehicle-treated animal controls. Behavior was assessed concomitantly or in a blocked manner with consideration for both genotype and treatment.

[9] = AM-0902 30 mg/kg, p.o., 30 min prior to behavior testing
[10] = i.p. daily for two days before surgery and daily after behavior testing, sulforaphane, exemestane, letrozole 10 mg/kg, JQ-1 40 mg/kg, ascorbate 100 mg/kg

T2 sequence (O75762 whole entry): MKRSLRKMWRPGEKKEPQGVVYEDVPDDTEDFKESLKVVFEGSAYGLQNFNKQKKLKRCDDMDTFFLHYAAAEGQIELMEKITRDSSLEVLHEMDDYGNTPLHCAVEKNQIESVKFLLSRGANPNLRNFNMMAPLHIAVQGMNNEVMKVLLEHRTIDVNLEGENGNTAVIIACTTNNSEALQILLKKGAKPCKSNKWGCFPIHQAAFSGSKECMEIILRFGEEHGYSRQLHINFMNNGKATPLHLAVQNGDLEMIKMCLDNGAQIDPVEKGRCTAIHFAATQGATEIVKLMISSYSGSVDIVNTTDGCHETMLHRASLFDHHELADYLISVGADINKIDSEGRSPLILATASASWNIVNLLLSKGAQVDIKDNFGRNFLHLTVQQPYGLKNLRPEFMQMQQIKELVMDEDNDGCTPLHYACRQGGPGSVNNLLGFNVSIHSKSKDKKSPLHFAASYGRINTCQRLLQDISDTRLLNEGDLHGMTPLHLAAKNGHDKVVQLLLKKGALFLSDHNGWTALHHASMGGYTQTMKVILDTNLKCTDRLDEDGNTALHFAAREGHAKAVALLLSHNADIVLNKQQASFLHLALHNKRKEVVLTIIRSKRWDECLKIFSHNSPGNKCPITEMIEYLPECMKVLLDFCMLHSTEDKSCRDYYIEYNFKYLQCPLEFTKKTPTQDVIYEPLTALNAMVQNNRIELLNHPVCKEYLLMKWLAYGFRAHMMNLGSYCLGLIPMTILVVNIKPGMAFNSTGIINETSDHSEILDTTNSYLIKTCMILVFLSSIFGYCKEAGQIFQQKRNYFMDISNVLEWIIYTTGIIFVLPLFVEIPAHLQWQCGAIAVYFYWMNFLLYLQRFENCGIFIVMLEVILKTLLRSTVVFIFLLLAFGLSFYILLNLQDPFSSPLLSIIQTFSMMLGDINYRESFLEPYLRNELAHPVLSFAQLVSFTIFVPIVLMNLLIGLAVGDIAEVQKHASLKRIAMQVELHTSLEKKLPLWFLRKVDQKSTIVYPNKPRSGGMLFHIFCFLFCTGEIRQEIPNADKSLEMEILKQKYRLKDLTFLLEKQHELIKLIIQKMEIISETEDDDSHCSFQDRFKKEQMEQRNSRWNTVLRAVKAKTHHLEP
T1 sequence (O75762 whole entry C621S/C641S/C665S): as the sequence (O75762 whole entry) above, with C621S, C641S, C665S counted along it

SMILES	EC50 [1] [µM]	sensitivity of triple mutant TRPA1 (Cys621, Cys641, Cys665 to serine) [3]	calcium response of cells transfected with the vector backbone alone [4]	calcium response of cells expressing WT TRPA1 [4]	EC50 [4] [µM]	further results
CCCCCC(O)/C=C/C=O (stereo not shown) [4-HNE, 4-hydroxynonenal]	12	still activated	Neither iodoacetamide, H2O2, nor 4-HNE elicited a calcium response	activated cells expressing TRPA1	48	sensitivity of triple cysteine mutant TRPA1 after also mutating Lys721 [2]: no longer sensitive
Cn1cnc2ncn(Cc3nc(CCc4ccc(Cl)cc4)no3)c(=O)c21 [AM-0902, 1-({3-(2-(4-chlorophenyl)ethyl]-1,2,4-oxadiazol-5-yl}methyl)-7-methylpurin-6-one]	–	–	–	–	–	mechanical allodynia [5, 9]: reduced; cold allodynia [6]: lowered; mechanical allodynia [7]: lowered; cold allodynia [8, 9]: reduced
OO [H2O2]	14	insensitive	Neither iodoacetamide, H2O2, nor 4-HNE elicited a calcium response	activated cells expressing TRPA1	133	–
NC(=O)CI [iodoacetamide]	–	insensitive	Neither iodoacetamide, H2O2, nor 4-HNE elicited a calcium response	–	–	–
N#Cc1ccc(C(c2ccc(C#N)cc2)n2cncn2)cc1 [letrozole]	–	–	–	–	–	mechanical allodynia (sensitivity to crude touch) [5, 10]: neither letrozole nor (−)-JQ-1 did; cold allodynia (ice-cold acetone) [8, 10]: neither letrozole nor (−)-JQ-1 did
